The subject of series [1] is kidney disease model rats. Kind of series: Survival time of kidney diseased animals. Type of series: in vivo, Sprague-Dawley female rats. The note with it: 20 mg/kg/day with drinking water, observation period eight weeks (upper limit); control 5.0.
The target of series [2] is T1, angiotensin II receptor subtype 1 (AT1) (Oryctolagus cuniculus, UniProt P34976).
T1 construct: receptor : from adrenal glands in rabbits; from tissue; host or cells: rabbit adrenal glands
T1 sequence (P34976 1-359): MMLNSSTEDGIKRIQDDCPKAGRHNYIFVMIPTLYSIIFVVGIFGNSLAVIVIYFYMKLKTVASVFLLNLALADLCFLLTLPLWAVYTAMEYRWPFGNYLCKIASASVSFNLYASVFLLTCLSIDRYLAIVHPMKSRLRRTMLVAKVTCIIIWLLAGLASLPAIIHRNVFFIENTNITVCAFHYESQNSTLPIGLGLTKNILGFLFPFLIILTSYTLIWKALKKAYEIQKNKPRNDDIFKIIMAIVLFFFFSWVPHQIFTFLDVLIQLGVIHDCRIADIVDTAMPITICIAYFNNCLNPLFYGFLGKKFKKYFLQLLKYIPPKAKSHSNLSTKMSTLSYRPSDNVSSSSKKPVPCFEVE
Kind of series: Binding to receptors: angiotensin II receptor subtype 1 (AT1). Set-up: species or system rabbits (adrenal glands). The note with it: rabbit adrenal glands, tracer 3H-angiotensin II.

Series [3] has as its system kidney disease model rats. Kind of series: Renal function indicatory value in kidney disease model rats. Format: in vivo, Sprague-Dawley female rats. The note with it: 20 mg/kg/day with drinking water, six weeks; for Creatinine clearance: 24 hours urine, control 0.22; for Creatinine / Blood urea nitrogen: serum; for Creatinine: control 2.0; for Blood urea nitrogen: control 100.

Series [4] has as its system kidney disease model rats. Kind of series: Action to lower blood pressure in kidney disease model rats (tail cuff). Format: in vivo, Sprague-Dawley female rats. The note with it: systolic, average of 8 rats, 20 mg/kg with drinking water, two days after administration; control 210.
Series [5] can be described thus: Oral absorption (amount of compound in rat serum by HPLC, area under curve). Format: in vivo, Sprague-Dawley female rats. The note with it: single dosage 160 mg/kg in water, 0.5 to 24 hours, average of 3 rats. As for the experimental part:
Twelve-week-old Sprague-Dawley female rats (3 rats per group) were bred for acclimation for a week. Then, the compounds of the present invention and a reference substrate were dissolved in water, and orally administered to the rats in a single dosage (160 mg/kg). After 0.5 hour, 1 hour, 2 hours, 4 hours, 6 hours, 8 hours, and 24 hours, the amounts of each compound (ng) per 1 ml of serum were measured using HPLC. Curves were obtained from the relation between an elapsed time after administration and the amount of the compound in serum at each elapsed time, respectively, and an average of the areas under the curves was calculated.
As a reference substance, Compound No. 184 disclosed in Japanese Unexamined Patent Publication (Kokai) No. 8-48651 was used. Compound No. 184 corresponds to the compound of the formula (I) wherein R^1 =nBu, A=N, Z=C, R^2 =CO, R^3 =NC4 H8 O, R^4 =H, R^5 =Me, and R^6 =Me.

These results are taken from US5863913A, “Aromatic compound and pharmaceutical composition” (Kureha Chemical Industry Co., Ltd., priority 1996, dated 1999).

The compound `CCCCC(=O)N(Cc1ccc(C(=O)O)cc1)c1cc(C(=O)N2CCN(C)CC2)ccc1C(C)C` [Compound No. 15, 3-[[(4-carboxyphenyl)methyl]valeramido]-4-i-propylbenzoic acid 4'-methylpiperazide] showed an Average survival time in series [1] of 6.1 weeks. In addition, the inhibition at 100 µM in series [2] was 0%. In series [3], this compound displayed a Creatinine clearance of 0.26 mL/min, a Creatinine of 1.8 mg/dL and a Blood urea nitrogen of 90 mg/dL. Besides, the “Blood Pressure” value in series [4] is given as 200 mmHg. This compound also had an AUC at 24 h in series [5] of 5670 ng·h/mL.
Turning to `CCCCCCC(=O)N(Cc1ccc(C(=O)O)cc1)c1cc(C(=O)N2CCN(C)CC2)ccc1C(C)C` [Compound No. 18, 3-N-[[(4-carboxyphenyl)methyl]n-heptanamido]-4-i-propylbenzoic acid 4'-methylpiperazide], the Average survival time in series [1] stood at 7.0 weeks. The compound also gave an inhibition at 100 µM in series [2] of 11%. In series [3], this compound showed a Creatinine clearance of 0.32 mL/min, a Creatinine of 1.4 mg/dL and a Blood urea nitrogen of 76 mg/dL. For the same compound, in series [4], the “Blood Pressure” value stood at 210 mmHg. In series [5], this compound came in with an AUC at 24 h of 12800 ng·h/mL.
Compound `CCCCC(=O)N(Cc1ccc(C(=O)O)cc1)c1cc(C(=O)N2CCN(CCC)CC2)ccc1C(C)C` [Compound No. 19, 3-[[(4-carboxyphenyl)methyl]valeramido]-4-i-propylbenzoic acid 4'-n-propylpiperazide] gave an Average survival time in series [1] of 7.2 weeks. The inhibition at 100 µM in series [2] is 11%. Besides, in series [3], the Creatinine clearance stood at 0.33 mL/min, the Creatinine was found to be 1.3 mg/dL and the Blood urea nitrogen turned out to be 76 mg/dL. Also, in series [4], the “Blood Pressure” value stood at 194 mmHg. Also, in series [5], the AUC at 24 h came out at 172000 ng·h/mL.
In series [1], `CCCCCCC(=O)N(Cc1ccc(C(=O)O)cc1)c1cc(C(=O)N2CCN(CCC)CC2)ccc1C(C)C` [Compound No. 20, 3-N-[[(4-carboxyphenyl)methyl]n-heptanamido]-4-i-propylbenzoic acid 4'-n-propylpiperazide] gave an Average survival time of 7.3 weeks. The same compound returned an inhibition at 100 µM in series [2] of 0%. In series [3], this compound showed a Creatinine clearance of 0.32 mL/min, a Creatinine of 1.3 mg/dL and a Blood urea nitrogen of 75 mg/dL. For the same compound, in series [4], the “Blood Pressure” value turned out to be 209 mmHg. The compound also came in with an AUC at 24 h in series [5] of 183000 ng·h/mL.
